Experimental data published in US6991812B2, “Agent for preventing, improving or treating hypertension” (Kao Corporation, priority 2000, dated 2006).

Tested on: male spontaneous hypertensive rats (SHR)
Experiment: Immediate effect on blood pressure in SHR, 1 hour after oral administration, tail artery systolic blood pressure
Format: in vivo, rat
Conditions: Example 6, organic acid, SHR aged 15 weeks, mean ± standard error
Description: The blood pressure of each of male spontaneous hypertensive rats (SHR) was preliminarily continuously measured for 7 days by means of a commercially available non-invasive sphygmomanometer (manufactured by Softlon Co.), thereby fully accustoming the rats to the sphygmomanometry, and an evaluation test was then started. All the rats were bred (in a breeding chamber in a rat zone) under conditions of a temperature of 25±1° C., a relative humidity of 55±10% and a lighting time of 12 hours (from 7 a.m. to 7 p.m.).
The thus-obtained test results were expressed by a mean and standard error to conduct a Student's t-test. A level of significance was defined as at most 5%.
Six rats aged 15 weeks at the time the administration test was started were used in each group. The systolic blood pressure of a tail artery of each rat was measured after 1 hour from the beginning of the administration.
In Control Group, water was orally administered. In Comparative Group 1, a 0.2% aqueous solution of ferulic acid was orally administered. […]
Six rats aged 15 weeks at the time the administration test was started were used in each group. The systolic blood pressure of a tail artery of each rat was measured after 1 hour from the beginning of oral administration. […]
In Control Group, a 1% aqueous solution of sugar was orally administered. […] The dose was determined to be 15 mL/kg.

COc1cc(/C=C/C(=O)O)ccc1O [Comp. Group 2, ferulic acid]
Systolic blood pressures, Before administration (n=6, baseline): 208.0 ± 4.1 mmHg
Systolic blood pressures, After 1 hour from administration (n=6, oral aqueous solution): 179.7 ± 4.4 mmHg
